Assay results: the supplement of paper PMC10307832

Legend:
Experiment in all cases: relative viability (nuclei count vs DMSO), 5 days (fraction); higher = more cells survive
GSK126 + Foretinib = compound: CC[C@H](C)N1C=C(C2=C(C=C(C=C21)C3=CN=C(C=C3)N4CCNCC4)C(=O)NCC5=C(C=C(NC5=O)C)C)C [GSK126] + COc1cc2c(Oc3ccc(NC(=O)C4(C(=O)Nc5ccc(F)cc5)CC4)cc3F)ccnc2cc1OCCCN1CCOCC1 [Foretinib] (partner 0.25 µM)
Method in brief: (§1)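 Relative viability was taken as the ratio of nuclei in treated wells to nuclei in vehicle wells. Lung cancer cell lines in 1536-well plates received compounds by pin tool one day after seeding, either one drug alone or a fixed anchor-drug dose plus five library-drug doses (not always all listed) in √10 steps. Nuclei were counted on 4× images after 5 days of treatment, and values are medians of duplicate plates.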

GSK126 + Lapatinib = compound: CC[C@H](C)N1C=C(C2=C(C=C(C=C21)C3=CN=C(C=C3)N4CCNCC4)C(=O)NCC5=C(C=C(NC5=O)C)C)C [GSK126] + CS(=O)(=O)CCNCc1ccc(-c2ccc3ncnc(Nc4ccc(OCc5cccc(F)c5)c(Cl)c4)c3c2)o1 [Lapatinib] (partner 2 µM)
Method in brief: as §1

GSK126 + Bortezomib = compound: CC[C@H](C)N1C=C(C2=C(C=C(C=C21)C3=CN=C(C=C3)N4CCNCC4)C(=O)NCC5=C(C=C(NC5=O)C)C)C [GSK126] + CC(C)C[C@H](NC(=O)[C@H](Cc1ccccc1)NC(=O)c1cnccn1)B(O)O [Bortezomib] (partner 0.002 µM)
Method in brief: as §1

[1] = compound: C1CC(C1)(C(=O)O)C(=O)O.[NH2-].[NH2-].[Pt+2] [Carboplatin] + CC(=O)c1c(C)c2cnc(Nc3ccc(N4CCNCC4)cn3)nc2n(C2CCCC2)c1=O [Palbociclib] (partner 0.5 µM)
Method in brief: as §1

Cell Line	relative viability (GSK126 + Foretinib; first compound 0.08 µM)	relative viability (GSK126 + Foretinib; first compound 0.253 µM)	relative viability (GSK126 + Foretinib; first compound 0.8 µM)	relative viability (GSK126 + Foretinib; first compound 2.53 µM)	relative viability (GSK126 + Foretinib; first compound 8 µM)	relative viability (GSK126 + Lapatinib; first compound 0.08 µM)	relative viability (GSK126 + Lapatinib; first compound 0.253 µM)	relative viability (GSK126 + Lapatinib; first compound 0.8 µM)	relative viability (GSK126 + Lapatinib; first compound 2.53 µM)	relative viability (GSK126 + Lapatinib; first compound 8 µM)	relative viability (GSK126 + Bortezomib; first compound 0.08 µM)	relative viability (GSK126 + Bortezomib; first compound 0.253 µM)	relative viability (GSK126 + Bortezomib; first compound 0.8 µM)	relative viability (GSK126 + Bortezomib; first compound 2.53 µM)	relative viability (GSK126 + Bortezomib; first compound 8 µM)	relative viability ([1]; first compound 0.08 µM)	relative viability ([1]; first compound 0.253 µM)	relative viability ([1]; first compound 0.8 µM)	relative viability ([1]; first compound 2.53 µM)	relative viability ([1]; first compound 8 µM)
201T	1.17	1.1	1.11	1.37	1.33	1.04	1.04	1.09	1.1	1.16	1.09	1.12	1.07	1.2	0.959	0.374	0.356	0.37	0.336	0.362
A549	1.01	0.974	0.922	0.954	0.904	1.06	1.08	0.946	0.932	0.934										
A-427	1.31	0.999	1.07	1.1	1.13	1.14	1.1	1.05	1.07	0.962	1.06	0.977	1.02	0.989	0.973	0.585	0.509	0.542	0.484	0.488
ABC-1	1.31	1.15	0.955	1.14	0.959	1.26	1.29	1.07	1.18	0.872	0.319	0.35	0.336	0.309	0.268	0.976	0.805	0.886	0.651	0.504
BEN	0.712	0.767	0.575	0.683	0.607	0.818	0.826	0.756	0.799	0.811	1.11	0.742	0.737	0.885	0.846	0.467	0.442	0.488	0.44	0.494
CAL-12T	1.13	1.12	1.09	1	1.25	0.63	0.674	0.615	0.809	0.644	0.942	1.01	0.929	1.08	1.04	0.402	0.514	0.506	0.483	0.406
COR-L23	1.06	0.931	0.921	0.932	1.01	1.04	0.958	0.943	0.914	0.818	1.08	0.979	0.942	1.01	0.992	0.32	0.303	0.226	0.196	0.123
COR-L 105	1.23	1.08	0.989	0.871	0.99	0.35	0.371	0.39	0.372	0.339	1.03	0.718	0.773	0.786	0.748	0.442	0.427	0.384	0.379	0.414
Calu-6	1.02	0.934	0.896	0.829	0.978	1.1	1.14	1.07	1.11	1.03	1.18	0.949	1.1	1.2	1.04					
ChaGo-K-1	1.07	1.06	0.878	1	0.835						0.969	1.02	0.979	1.19	1.06	0.913	0.937	0.837	0.749	0.535
EBC-1	0.117	0.113	0.0893	0.102	0.0935	0.232	0.188	0.178	0.21	0.202	0.61	0.542	0.529	0.563	0.411					
EKVX	0.755	0.881	0.782	0.876	0.903	0.226	0.22	0.211	0.203	0.221	1	1.07	1.08	0.992	1.06	0.364	0.513	0.385	0.354	0.341
EMC-BAC-2	1.07	0.964	0.706	0.98	1.03	0.913	0.899	0.89	0.88	0.944	1.02	1.04	1.05	1.03	1.05	0.533	0.516	0.525	0.536	0.469
EPLC-272H	0.809	0.789	0.736	0.742	0.754	0.995	0.975	0.851	1.06	0.915	1.1	0.889	0.99	0.822	0.963	0.352	0.325	0.32	0.327	0.359
H3255	1.07	0.887	0.894	0.987	0.983	0.24	0.243	0.302	0.272	0.269	0.729	0.731	0.683	0.802	0.879	0.303	0.303	0.308	0.275	0.306
HARA	1.14	0.93	0.874	0.877	0.839	0.734	0.602	0.736	0.804	0.807	1.15	1.14	1.09	1.11	1.05	0.311	0.344	0.204	0.225	0.308
HCC-15	1.08	1.04	1.08	1.04	0.887	0.841	0.888	0.806	0.785	0.727	1.04	1.1	0.974	0.957	0.975	0.751	0.721	0.702	0.615	0.575
HCC-44						0.998	1.07	1.04	0.846	1.02	0.857	0.972	0.876	0.77	0.871	0.994	0.975	1	0.859	0.89
HCC-78	0.561	0.556	0.521	0.63	0.548	0.713	1.06	0.886	0.711	0.722	0.464	0.466	0.374	0.562	0.389	0.446	0.495	0.491	0.464	0.433
HCC-366	1.02	0.974	0.907	0.892	0.935	1.02	0.948	1.08	1.09	1.12	1.1	1.05	1.03	1.06	1.05	0.484	0.401	0.339	0.233	0.152

Cell Line	relative viability (GSK126 + Foretinib; first compound 0.08 µM)	relative viability (GSK126 + Foretinib; first compound 0.253 µM)	relative viability (GSK126 + Foretinib; first compound 0.8 µM)	relative viability (GSK126 + Foretinib; first compound 2.53 µM)	relative viability (GSK126 + Foretinib; first compound 8 µM)	relative viability (GSK126 + Lapatinib; first compound 0.08 µM)	relative viability (GSK126 + Lapatinib; first compound 0.253 µM)	relative viability (GSK126 + Lapatinib; first compound 0.8 µM)	relative viability (GSK126 + Lapatinib; first compound 2.53 µM)	relative viability (GSK126 + Lapatinib; first compound 8 µM)	relative viability (GSK126 + Bortezomib; first compound 0.08 µM)	relative viability (GSK126 + Bortezomib; first compound 0.253 µM)	relative viability (GSK126 + Bortezomib; first compound 0.8 µM)	relative viability (GSK126 + Bortezomib; first compound 2.53 µM)	relative viability (GSK126 + Bortezomib; first compound 8 µM)	relative viability ([1]; first compound 0.08 µM)	relative viability ([1]; first compound 0.253 µM)	relative viability ([1]; first compound 0.8 µM)	relative viability ([1]; first compound 2.53 µM)	relative viability ([1]; first compound 8 µM)
IA-LM	1.26	1.03	0.994	1.03	1.08	1	0.717	0.708	0.762	0.892	0.98	0.789	0.847	0.796	0.788					
LCLC-103H	0.86	0.744	0.738	0.926	0.814						1.23	0.995	0.984	1.13	1.03	0.538	0.469	0.543	0.431	0.444
LK-2	1.44	1.33	1.28	1.15	1.19	0.947	0.952	0.876	0.916	0.673						0.619	0.824	0.796	0.789	0.658
NCI-H358	0.742	0.629	0.66	0.859	0.786	0.487	0.461	0.525	0.454	0.51						0.141	0.148	0.144	0.149	0.183
NCI-H441	0.889	0.866	0.975	0.926	0.715						0.445	0.452	0.419	0.507	0.519	0.282	0.226	0.212	0.211	0.231
NCI-H522																0.897	1.35	1	0.965	0.825
NCI-H596	0.854	0.497	1.08	0.975	0.809	1.11	0.932	0.951	1.11	1.08	1.09	0.982		1.14	0.731					
NCI-H1299	1.14	1.13	1.05	1.07	1.11	0.968	0.997	0.952	0.931	0.929	1.03	1.01	0.999	0.969	1.06					
NCI-H1395	1.17	0.878	1.04	1.07	0.785	1.04	0.973	1.3	1.14	1.03						0.703	0.679	0.547	0.487	0.535
NCI-H1563	1.01	0.9	0.934	0.893	0.95	1.1	1.04	0.957	0.999	0.869	0.948	0.924	0.937	0.887	0.834					
NCI-H1623	0.941	0.888	0.916	0.883	0.799															
NCI-H1648																0.239	0.291	0.264	0.302	0.3
NCI-H1703	0.354	0.357	0.311	0.373	0.381	1.08	1.14	0.917	1.23	1.09	0.444	0.339	0.191	0.407	0.209					
NCI-H1792						0.973	0.894	0.868	0.982	0.943	0.973	1.02	0.991	0.91	0.948	0.674	0.607	0.639	0.616	0.569
NCI-H1793	0.799	0.519	0.581	0.776	0.885	0.867	0.467	0.647	0.583	0.629						0.364	0.365	0.31	0.325	0.365
NCI-H1944	0.918	0.837	0.854	0.872	0.956	1.04	0.724	0.859	0.865	0.989						0.335	0.359	0.332	0.332	0.272
NCI-H2170	0.587	1.03	0.979	0.969	0.973	0.253	0.266	0.319	0.288	0.27						0.39	0.411	0.384	0.379	0.342
NCI-H2342	1.16	1.05	0.998	1.05	1.16											0.514	0.483	0.482	0.531	0.526
SK-MES-1	1.01	0.913	0.88	0.834	0.976	0.496	0.455	0.482	0.431	0.46						0.354	0.298	0.316	0.329	0.315
SW 900	0.753	0.817	0.922	0.848	0.909											0.548	0.622	0.572	0.393	0.505
